Values of other authors, collected in US10004757B1, “Oral supplement” (Nutri Vida, LLC, priority 2017, dated 2018).

Details: taken over the daily recommended amount

Question: With `O=C(O)c1cccnc1` [Niacin, nicotinic acid] as the molecule, how does the decrease in triglycerides read?
Answer: 30%
